{"source": "paper PMC9090415", "about": "“Discovery of small molecule inhibitors of Plasmodium falciparum apicoplast DNA polymerase” (Journal of Enzyme Inhibition and Medicinal Chemistry, 2022)", "molecular_target": "P. falciparum apicoplast DNA polymerase (Pf-apPOL) (Plasmodium falciparum, UniProt Q8ILY1)", "sequence (Q8ILY1 entry or part of it)": "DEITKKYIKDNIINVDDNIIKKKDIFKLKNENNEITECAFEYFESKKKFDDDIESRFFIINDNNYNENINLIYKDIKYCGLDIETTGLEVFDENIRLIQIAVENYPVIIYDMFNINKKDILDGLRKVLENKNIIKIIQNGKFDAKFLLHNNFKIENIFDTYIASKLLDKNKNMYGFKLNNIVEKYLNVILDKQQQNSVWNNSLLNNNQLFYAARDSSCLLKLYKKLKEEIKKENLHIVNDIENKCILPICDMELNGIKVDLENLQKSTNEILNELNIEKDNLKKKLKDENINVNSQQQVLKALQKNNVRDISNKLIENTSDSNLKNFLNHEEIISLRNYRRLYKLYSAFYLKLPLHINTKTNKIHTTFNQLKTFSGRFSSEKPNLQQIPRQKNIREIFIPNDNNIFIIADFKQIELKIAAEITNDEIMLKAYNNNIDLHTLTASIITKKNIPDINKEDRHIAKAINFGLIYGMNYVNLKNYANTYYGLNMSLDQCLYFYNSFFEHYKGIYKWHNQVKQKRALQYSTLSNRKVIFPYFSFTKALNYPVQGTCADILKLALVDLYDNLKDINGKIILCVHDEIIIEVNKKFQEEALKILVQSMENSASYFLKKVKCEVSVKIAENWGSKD", "assay": "Fluorescence-based high-throughput DNA polymerase assay (molecular beacon), primary screen and dose-response;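 as to % inhibition ApPOL 90': test concentration in µM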;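 as to % inhibition apPOL 180': test concentration in µM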", "type": "biochemical", "settings": "for DNA Pol: 90 min, 10 µM", "summary_of_the_method": "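Single-point screening used 10 µM compound with 20 nM polymerase, 20 nM hairpin substrate and 6 µM dNTPs for 90 min at 25 °C. Confirmatory titrations (2.5–80 µM) followed fluorescence at three times, and IC50 was derived from a fit including a cooperativity term n.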", "key": {"[1]": {"settings": "primary screen value by plate and well"}, "[2]": {"settings": "primary screen value of the 186 hits, unit not given"}}}
{"smiles": "CC(=O)Nc1cc(C(=O)NC(C)C)c2ccc(C)nc2c1", "note": "[KU0206312]", "values": [{"measurement": "% inhibition Apo pol 10'", "setting": "DRC-1, concentration 2.5", "value": -0.09953, "unit": "%"}, {"measurement": "% inhibition Apo pol 10'", "setting": "DRC-1, concentration 5", "value": 7.573, "unit": "%"}, {"measurement": "% inhibition Apo pol 10'", "setting": "DRC-1, concentration 10", "value": 27.7087, "unit": "%"}, {"measurement": "% inhibition Apo pol 10'", "setting": "DRC-1, concentration 20", "value": 47.6334, "unit": "%"}, {"measurement": "% inhibition Apo pol 10'", "setting": "DRC-1, concentration 40", "value": 73.4276, "unit": "%"}, {"measurement": "% inhibition Apo pol 10'", "setting": "DRC-1, concentration 80", "value": 85.3418, "unit": "%"}, {"measurement": "% inhibition Apol 90'", "setting": "DRC-1, concentration 2.5", "value": -3.317, "unit": "%"}, {"measurement": "% inhibition Apol 90'", "setting": "DRC-1, concentration 5", "value": -1.224, "unit": "%"}, {"measurement": "% inhibition Apol 90'", "setting": "DRC-1, concentration 10", "value": 13.9494, "unit": "%"}, {"measurement": "% inhibition Apol 90'", "setting": "DRC-1, concentration 20", "value": 30.2375, "unit": "%"}, {"measurement": "% inhibition Apol 90'", "setting": "DRC-1, concentration 40", "value": 59.3171, "unit": "%"}, {"measurement": "% inhibition Apol 90'", "setting": "DRC-1, concentration 80", "value": 84.495, "unit": "%"}, {"measurement": "% inhibition apPOL 180'", "setting": "DRC-1, concentration 2.5", "value": -3.391, "unit": "%"}, {"measurement": "% inhibition apPOL 180'", "setting": "DRC-1, concentration 5", "value": -3.035, "unit": "%"}, {"measurement": "% inhibition apPOL 180'", "setting": "DRC-1, concentration 10", "value": 6.928, "unit": "%"}, {"measurement": "% inhibition apPOL 180'", "setting": "DRC-1, concentration 20", "value": 18.5029, "unit": "%"}, {"measurement": "% inhibition apPOL 180'", "setting": "DRC-1, concentration 40", "value": 47.7981, "unit": "%"}, {"measurement": "% inhibition apPOL 180'", "setting": "DRC-1, concentration 80", "value": 83.4711, "unit": "%"}, {"measurement": "% inhibition Apo pol 5'", "setting": "DRC-2, concentration 2.5", "value": 8, "unit": "%"}, {"measurement": "% inhibition Apo pol 5'", "setting": "DRC-2, concentration 5", "value": 15, "unit": "%"}, {"measurement": "% inhibition Apo pol 5'", "setting": "DRC-2, concentration 10", "value": 35, "unit": "%"}, {"measurement": "% inhibition Apo pol 5'", "setting": "DRC-2, concentration 20", "value": 45, "unit": "%"}, {"measurement": "% inhibition Apo pol 5'", "setting": "DRC-2, concentration 40", "value": 47, "unit": "%"}, {"measurement": "% inhibition Apo pol 5'", "setting": "DRC-2, concentration 80", "value": 43, "unit": "%"}, {"measurement": "% inhibition Apol 40'", "setting": "DRC-2, concentration 2.5", "value": 8, "unit": "%"}, {"measurement": "% inhibition Apol 40'", "setting": "DRC-2, concentration 5", "value": 13, "unit": "%"}, {"measurement": "% inhibition Apol 40'", "setting": "DRC-2, concentration 10", "value": 34, "unit": "%"}, {"measurement": "% inhibition Apol 40'", "setting": "DRC-2, concentration 20", "value": 51, "unit": "%"}, {"measurement": "% inhibition Apol 40'", "setting": "DRC-2, concentration 40", "value": 65, "unit": "%"}, {"measurement": "% inhibition Apol 40'", "setting": "DRC-2, concentration 80", "value": 67, "unit": "%"}, {"measurement": "% inhibition ApPOL 90'", "setting": "DRC-2, concentration 2.5", "value": 6.64, "unit": "%"}, {"measurement": "% inhibition ApPOL 90'", "setting": "DRC-2, concentration 5", "value": 11, "unit": "%"}, {"measurement": "% inhibition ApPOL 90'", "setting": "DRC-2, concentration 10", "value": 31, "unit": "%"}, {"measurement": "% inhibition ApPOL 90'", "setting": "DRC-2, concentration 20", "value": 50, "unit": "%"}, {"measurement": "% inhibition ApPOL 90'", "setting": "DRC-2, concentration 40", "value": 68, "unit": "%"}, {"measurement": "% inhibition ApPOL 90'", "setting": "DRC-2, concentration 80", "value": 73, "unit": "%"}, {"measurement": "% inhibition apPOL 180'", "setting": "DRC-2, concentration 2.5", "value": 2, "unit": "%"}, {"measurement": "% inhibition apPOL 180'", "setting": "DRC-2, concentration 5", "value": 5, "unit": "%"}, {"measurement": "% inhibition apPOL 180'", "setting": "DRC-2, concentration 10", "value": 20, "unit": "%"}, {"measurement": "% inhibition apPOL 180'", "setting": "DRC-2, concentration 20", "value": 41, "unit": "%"}, {"measurement": "% inhibition apPOL 180'", "setting": "DRC-2, concentration 40", "value": 67, "unit": "%"}, {"measurement": "% inhibition apPOL 180'", "setting": "DRC-2, concentration 80", "value": 78, "unit": "%"}, {"measurement": "% inhibition Apo pol 5'", "setting": "conc. 2.5, DRC-2", "value": 8, "unit": "%"}, {"measurement": "% inhibition Apol 40'", "setting": "conc. 2.5, DRC-2", "value": 8, "unit": "%"}, {"measurement": "% inhibition apPOL 180'", "setting": "conc. 40, DRC-2", "value": 67, "unit": "%"}, {"measurement": "% inhibition Apol 40'", "setting": "conc. 80, DRC-2", "value": 67, "unit": "%"}, {"measurement": "DNA Pol", "setting": "[1]", "value": 32}, {"measurement": "DNA Pol", "setting": "[2]", "value": 32}]}
{"smiles": "Cc1cc(C)c(O)c(/N=C/c2cc([N+](=O)[O-])cc(Br)c2O)c1", "note": "[KU0046272]", "values": [{"measurement": "% inhibition Apo pol 10'", "setting": "DRC-1, concentration 2.5", "value": 3.169, "unit": "%"}, {"measurement": "% inhibition Apo pol 10'", "setting": "DRC-1, concentration 5", "value": -1.228, "unit": "%"}, {"measurement": "% inhibition Apo pol 10'", "setting": "DRC-1, concentration 10", "value": 12.3955, "unit": "%"}, {"measurement": "% inhibition Apo pol 10'", "setting": "DRC-1, concentration 20", "value": 36.9804, "unit": "%"}, {"measurement": "% inhibition Apo pol 10'", "setting": "DRC-1, concentration 40", "value": 60.3951, "unit": "%"}, {"measurement": "% inhibition Apo pol 10'", "setting": "DRC-1, concentration 80", "value": 90.16, "unit": "%"}, {"measurement": "% inhibition Apol 90'", "setting": "DRC-1, concentration 2.5", "value": -6.623, "unit": "%"}, {"measurement": "% inhibition Apol 90'", "setting": "DRC-1, concentration 5", "value": -11.6285, "unit": "%"}, {"measurement": "% inhibition Apol 90'", "setting": "DRC-1, concentration 10", "value": 2.689, "unit": "%"}, {"measurement": "% inhibition Apol 90'", "setting": "DRC-1, concentration 20", "value": 23.1885, "unit": "%"}, {"measurement": "% inhibition Apol 90'", "setting": "DRC-1, concentration 40", "value": 44.716, "unit": "%"}, {"measurement": "% inhibition Apol 90'", "setting": "DRC-1, concentration 80", "value": 85.7846, "unit": "%"}, {"measurement": "% inhibition apPOL 180'", "setting": "DRC-1, concentration 2.5", "value": -11.4225, "unit": "%"}, {"measurement": "% inhibition apPOL 180'", "setting": "DRC-1, concentration 5", "value": -16.1751, "unit": "%"}, {"measurement": "% inhibition apPOL 180'", "setting": "DRC-1, concentration 10", "value": -3.511, "unit": "%"}, {"measurement": "% inhibition apPOL 180'", "setting": "DRC-1, concentration 20", "value": 14.6468, "unit": "%"}, {"measurement": "% inhibition apPOL 180'", "setting": "DRC-1, concentration 40", "value": 35.3485, "unit": "%"}, {"measurement": "% inhibition apPOL 180'", "setting": "DRC-1, concentration 80", "value": 85.8895, "unit": "%"}, {"measurement": "% inhibition Apo pol 5'", "setting": "DRC-2, concentration 2.5", "value": 7, "unit": "%"}, {"measurement": "% inhibition Apo pol 5'", "setting": "DRC-2, concentration 5", "value": 6, "unit": "%"}, {"measurement": "% inhibition Apo pol 5'", "setting": "DRC-2, concentration 10", "value": 4.64, "unit": "%"}, {"measurement": "% inhibition Apo pol 5'", "setting": "DRC-2, concentration 20", "value": 17, "unit": "%"}, {"measurement": "% inhibition Apo pol 5'", "setting": "DRC-2, concentration 40", "value": 41, "unit": "%"}, {"measurement": "% inhibition Apo pol 5'", "setting": "DRC-2, concentration 80", "value": 54, "unit": "%"}, {"measurement": "% inhibition Apol 40'", "setting": "DRC-2, concentration 2.5", "value": 2, "unit": "%"}, {"measurement": "% inhibition Apol 40'", "setting": "DRC-2, concentration 5", "value": 4.73, "unit": "%"}, {"measurement": "% inhibition Apol 40'", "setting": "DRC-2, concentration 10", "value": 4, "unit": "%"}, {"measurement": "% inhibition Apol 40'", "setting": "DRC-2, concentration 20", "value": 19, "unit": "%"}, {"measurement": "% inhibition Apol 40'", "setting": "DRC-2, concentration 40", "value": 47, "unit": "%"}, {"measurement": "% inhibition Apol 40'", "setting": "DRC-2, concentration 80", "value": 72, "unit": "%"}, {"measurement": "% inhibition ApPOL 90'", "setting": "DRC-2, concentration 2.5", "value": 1, "unit": "%"}, {"measurement": "% inhibition ApPOL 90'", "setting": "DRC-2, concentration 5", "value": 3.45, "unit": "%"}, {"measurement": "% inhibition ApPOL 90'", "setting": "DRC-2, concentration 10", "value": 2.43, "unit": "%"}, {"measurement": "% inhibition ApPOL 90'", "setting": "DRC-2, concentration 20", "value": 20, "unit": "%"}, {"measurement": "% inhibition ApPOL 90'", "setting": "DRC-2, concentration 40", "value": 47, "unit": "%"}, {"measurement": "% inhibition ApPOL 90'", "setting": "DRC-2, concentration 80", "value": 75, "unit": "%"}, {"measurement": "% inhibition apPOL 180'", "setting": "DRC-2, concentration 2.5", "value": -0.688, "unit": "%"}, {"measurement": "% inhibition apPOL 180'", "setting": "DRC-2, concentration 5", "value": 1.3, "unit": "%"}, {"measurement": "% inhibition apPOL 180'", "setting": "DRC-2, concentration 10", "value": 1.29, "unit": "%"}, {"measurement": "% inhibition apPOL 180'", "setting": "DRC-2, concentration 20", "value": 17, "unit": "%"}, {"measurement": "% inhibition apPOL 180'", "setting": "DRC-2, concentration 40", "value": 40, "unit": "%"}, {"measurement": "% inhibition apPOL 180'", "setting": "DRC-2, concentration 80", "value": 75, "unit": "%"}, {"measurement": "% inhibition Apo pol 5'", "setting": "conc. 20, DRC-2", "value": 17, "unit": "%"}, {"measurement": "% inhibition apPOL 180'", "setting": "conc. 20, DRC-2", "value": 17, "unit": "%"}, {"measurement": "% inhibition Apol 40'", "setting": "conc. 40, DRC-2", "value": 47, "unit": "%"}, {"measurement": "% inhibition ApPOL 90'", "setting": "conc. 40, DRC-2", "value": 47, "unit": "%"}, {"measurement": "% inhibition ApPOL 90'", "setting": "conc. 80, DRC-2", "value": 75, "unit": "%"}, {"measurement": "% inhibition apPOL 180'", "setting": "conc. 80, DRC-2", "value": 75, "unit": "%"}, {"measurement": "DNA Pol", "setting": "[1]", "value": 45}, {"measurement": "DNA Pol", "setting": "[2]", "value": 45}]}
{"smiles": "O=C(Cc1cc(=O)[nH]c(SCc2ccccc2)n1)Nc1ccc2c(c1)OCO2", "note": "[Molecule 46]", "values": [{"measurement": "IC50", "setting": "supplemental file 2, sheet IC50 nontoxic compounds, Pf-apPOL", "value": 15.5, "unit": "µM"}]}
